{
  "source": "patent US20040132806A1",
  "about": "“Pravastatin pharmaceutical formulations and methods of their use” (priority 2002, published 2004)",
  "origin": "cited, not measured here",
  "key": {"[1]": {"conditions": "such as the stomach"}, "[2]": {"conditions": "patients treated with pravastatin (Schatke et al, 1992)"}, "[3]": {"conditions": "intravenous, radiolabeled"}, "[4]": {"assay": "not given", "remark": "listed apart in the source"}},
  "note": "Read-outs that look alike come from different tables or passages of the source.",
  "data": [
    {"smiles": "CC[C@H](C)C(=O)O[C@H]1C[C@H](O)C=C2C=C[C@H](C)[C@H](CC[C@@H](O)C[C@@H](O)CC(=O)O)[C@H]21", "note": "[pravastatin, Pravastatin]", "values": [
      {"measurement": "stability in acidic conditions", "setting": "[1]", "value": "poor stability"},
      {"measurement": "myopathy", "setting": "[2]", "value": "Severe myopathy has been observed"},
      {"measurement": "hepatic extraction ratio", "setting": "Lennernas & Fager, 1997", "value": 0.45},
      {"measurement": "hepatic extraction ratio", "setting": "Quion & Jones, 1994", "value": 0.66},
      {"measurement": "first-pass extraction in the liver (extraction ratio)", "setting": "in vivo", "value": 0.66},
      {"measurement": "share of total body clearance by non-renal routes (biliary excretion and biotransformation)", "setting": "[3]", "value": "~53", "unit": "%"},
      {"measurement": "share of total body clearance via renal excretion", "setting": "[3]", "value": "approximately 47%"},
      {"measurement": "decrease of systemic bioavailability following a bedtime dose (PM) compared to morning (AM) dose", "setting": "[4]; PM vs AM dose", "value": 60, "unit": "%"},
      {"measurement": "average oral absorption", "setting": "[4]; based on urinary recovery of radiolabeled drug", "value": 34, "unit": "%"},
      {"measurement": "radiolabeled oral dose excreted in the feces", "setting": "[4]; oral radiolabeled dose", "value": "~70", "unit": "%"},
      {"measurement": "radiolabeled oral dose excreted in urine", "setting": "[4]; oral radiolabeled dose", "value": "Approximately 20%"}
    ]}
  ]
}
